From ChEMBL document CHEMBL1153858, “Application of phosphonyl carbanions to highly regioselective synthesis of some diazaphospholes and pyrazolinyl phosphonates” (2009)

What was measured:
Format in all cases: functional
[1] = test system: Agrobacterium tumefaciens; assay: Antimicrobial activity against Bacillus tumefaciens
[2] = test system: Staphylococcus aureus; assay: Antimicrobial activity against Staphylococcus aureus
[3] = test system: Klebsiella pneumoniae; assay: Antimicrobial activity against Klebsiella pneumoniae
[4] = test system: Aspergillus niger; assay: Antimicrobial activity against Aspergillus niger
[5] = test system: Aspergillus flavus; assay: Antimicrobial activity against Aspergillus flavus
[6] = test system: Penicillium chrysogenum; assay: Antimicrobial activity against Penicillium chrysogenum
[7] = test system: Agrobacterium tumefaciens; assay: Antimicrobial activity against Bacillus tumefaciens assessed as activity index
[8] = test system: Staphylococcus aureus; assay: Antimicrobial activity against Staphylococcus aureus assessed as activity index
[9] = test system: Klebsiella pneumoniae; assay: Antimicrobial activity against Klebsiella pneumoniae assessed as activity index
[10] = test system: Aspergillus niger; assay: Antimicrobial activity against Aspergillus niger assessed as activity index
[11] = test system: Aspergillus flavus; assay: Antimicrobial activity against Aspergillus flavus assessed as activity index
[12] = test system: Penicillium chrysogenum; assay: Antimicrobial activity against Penicillium chrysogenum assessed as activity index

| Compound | Diameter of inhibition zone [1] [mm] | Diameter of inhibition zone [2] [mm] | Diameter of inhibition zone [3] [mm] | Diameter of inhibition zone [4] [mm] | Diameter of inhibition zone [5] [mm] | Diameter of inhibition zone [6] [mm] | Activity [7] | Activity [8] | Activity [9] | Activity [10] | Activity [11] | Activity [12] |
| --- | --- | --- | --- | --- | --- | --- | --- | --- | --- | --- | --- | --- |
| CCOP1(=O)C(C(=O)OC)=NN(CC)C12C(=O)c1ccccc1C2=O (stereo unspecified) | 12.2 | 9 | 10.3 | 8.4 | 9 | 7.9 | 0.9 | 0.85 | 1.04 | 1.18 | 1.12 | 1.31 |
| CCOP1(=O)C(C#N)=NN(CC)C12C(=O)c1ccccc1C2=O (stereo unspecified) | 10 | 10 | 12 | 9 | 11.3 | 8 | 0.89 | 0.92 | 1.16 | 1.14 | 1.15 | 1 |
| CCOC(=O)C1=NN(CC)C2(C(=O)c3ccccc3C2=O)P1(=O)OCC (stereo unspecified) | 11 | 8.5 | 11.3 | 7.4 | 9.6 | 7.8 | 0.78 | 0.88 | 0.8 | 1.23 | 1.35 | 1.42 |
| CCn1nc(SC)oc2c3ccccc3c(=O)c1=2 | 5.6 | 5.9 | 5.1 | 4.9 | 6.2 | 5.6 | 0.55 | 0.26 | 0.32 | 1.31 | 0.41 | 0.54 |
| CCOP(=O)(OCC)C1=NN(CC)C2(C1=O)C(=O)c1ccccc1C2=O | 7.6 | 7.6 | 8.2 | 6.1 | 7.4 | 5.9 | 0.57 | 0.83 | 0.63 | 0.73 | 0.88 | 1.06 |
| CCOP(=O)(OCC)C1=NN(CC)C2(C1)C(=O)c1ccccc1C2=O | 9.8 | 8 | 7.6 | 4.3 | 5 | 9 | 0.84 | 0.61 | 1 | 0.66 | 0.62 | 0.71 |
| CCOP1(=O)C(SC)=NN(CC)C12C(=O)c1ccccc1C2=O (stereo unspecified) | 12.6 | 12.8 | 10.5 | 8 | 9.8 | 9.2 | 0.92 | 1.16 | 0.81 | 1.14 | 1.36 | 1.32 |
| CCOP(=O)(OCC)C1=C(N)C2(N=N1)C(=O)c1ccccc1C2=O | 8.4 | 7.2 | 6 | 5.4 | 6.3 | 5.2 | 0.75 | 52 | 0.47 | 0.73 | 0.78 | 0.71 |
